Strand notation (5' to 3'): a small letter for the sugar, then the base; units joined by * are phosphorothioate-linked, units joined directly phosphodiester-linked; [ ] holds rarer units or linkages, { } end groups; capitals alone tell only the bases. l = locked nucleic acid (LNA); [5mC] = 5-methylcytosine; d = 2'-deoxy (DNA)
Experiments:
[1] = test system: miR-122a; experiment: Melting temperature (Tm) of LNA anti-miR/miR-122a RNA duplex; assay type: physicochemical, human; settings: Table 2; towards synthetic miR-122a RNA oligonucleotide with phosphorothioate linkages; PS backbone
Protocol: The melting temperatures were assessed towards the mature miR-122a sequence, using a synthetic miR-122a RNA oligonucleotide with phosphorothioate linkaged.
The LNA anti-miR/miR-122a oligo duplex was diluted to 3 μM in 500 μl RNase free H2O, which was then mixed with 500 μl 2× dimerization buffer (final oligo/duplex conc. 1.5 μM, 2× Tm buffer: 200 mM NaCl, 0.2 mM EDTA, 20 mM NaP, pH 7.0, DEPC treated to remove RNases). The mix was first heated to 95 degrees for 3 minutes, then allowed to cool at room temperature (RT) for 30 minutes.
Following RT incubation Tm was measured on Lambda 40 UV/VIS Spectrophotometer with peltier temperature progammer PTP6 using PE Templab software (Perkin Elmer). The temperature was ramped up from 20° C. to 95° C. and then down again to 20° C., continuously recording absorption at 260 nm. First derivative and local maximums of both the melting and annealing was used to assess melting/annealing point (Tm), both should give similar/same Tm values. For the first derivative 91 points was used to calculate the slope.

[2] = test system: miR-122a; experiment: miR-122a level in transfected Huh-7 cells by miR-122a specific qRT-PCR; assay type: cell-based, human; settings: transfected at 1 and 100 nM, 24 hours after transfection
Protocol: The miR-122a expressing cell line Huh-7 was transfected with LNA anti-miR5 at 1 and 100 nM concentrations according to optimized lipofectamine 2000 (LF2000, Invitrogen) protocol (as follows).
Huh-7 cells were cultivated in Eagles MEM with 10% FBS, 2 mM Glutamax I, 1× non-essential amino acids, Gentamicin 25 μg/ml. The cells were seeded in 6-well plates (300000 cells per well), in a total vol. of 2.5 ml the day before transfection. At the day of transfection a solution containing LF2000 diluted in Optimem (Invitrogen) was prepared (1.2 ml optimem+3.75 μl LF2000 per well, final 2.5 μg LF2000/ml, final tot vol 1.5 ml).
LNA Oligonucleotides (LNA anti-miRs) were also diluted in optimem. 285 μl optimem+15 μl LNA oligonucleotide (10 μM oligonucleotide stock for final concentration 100 nM and 0.1 μM for final concentration 1 nM) Cells were washed once in optimem then the 1.2 ml optimem/LF2000 mix were added to each well. Cells were incubated 7 min at room temperature in the LF2000 mix where after the 300 μl oligonucleotide optimem solution was added. […]
miR-122a levels in the RNA samples were assessed on an ABI 7500 Fast real-time PCR instrument (Applied Biosystems, USA) using a miR-122a specific qRT-PCR kit, mirVana (Ambion, USA) and miR-122a primers (Ambion, USA). […]

[3] = test system: miR-122a target genes (Bckdk, aldolase A, Nrdg3, CD320, Vldlr); experiment: miR-122a target mRNA levels in mouse liver by qPCR; assay type: in vivo; settings: 5 mg/kg i.p. twice weekly for 5½ weeks
[4] = test system: miR-122a; experiment: miR-122a levels in mouse liver by microRNA specific qPCR; assay type: in vivo; settings: hypercholesterolemic and normal mice; 5 mg/kg i.p. twice weekly for 5½ weeks
Protocol: Total RNA was extracted from liver samples as described above and analysed for miR-122a levels by microRNA specific QPCR.
In vivo study: Ten groups of animals (female C57/BL6; 3 mice per group) were treated in the following manner. Group 1 animals were injected with 0.2 ml saline by i.p. on day 0, day 2 and day 4. Groups 2-10 were dosed by i.p. with three different conc. (25 mg/kg, 5 mg/kg and 1 mg/kg) of either LNA antimiR-122a/SEQ ID NO: 61 (group 2-4), LNA antimir-122a/SEQ ID NO: 66 (group 5-7) or LNA antimir-122a/SEQ ID NO: 63 (group 8-10); the LNA antimir-122a sequences are given in the Table 1. All three LNA antimiR-122a oligonucleotides target the liver-specific miR-122a. The doses were calculated from the Day 0 body weights of each animal.
The animals were sacrificed 48 hours after last dose (Day 6), retro-orbital blood was collected in tubes containing EDTA and the plasma fraction harvested and stored frozen −80° C. for cholesterol analysis. At sacrifice livers were dissected and one portion was cut into 5 mm cubes and immersed in 5 volumes of ice-cold RNAlater. A second portion was snap frozen in liquid nitrogen and stored for cryo-sectioning.
Total RNA was extracted from liver samples using Trizol reagent according to the manufacturer's recommendations (Invitrogen, USA) and analysed for miR-122a levels by microRNA-specific QPCR according to the manufacturer's recommendations (Ambion, USA). […]
NMRI female mice were treated with indicated doses of LNA-antimiR (SEQ ID NO: 61) along with a mismatch control (m, SEQ ID NO: 65), saline and antagomir (SPC3595) for three consecutive days and sacrificed 24 hours after last dose (as in example 11 “old design”, n=5). miR-122 levels were analyzed by qPCR and normalized to the saline treated group.
(§1) C57BL/6J female mice were fed on high fat diet for 13 weeks before the initiation of the SEQ ID NO: 63 treatment. […] Both hypercholesterolemic and normal mice were treated i.p. twice weekly with 5 mg/kg SEQ ID NO: 63 and the corresponding mismatch control for a study period of 5½ weeks. Blood samples were collected weekly and total plasma cholesterol was measured during the entire course of the study. Upon sacrificing the mice, liver and blood samples were prepared for total RNA extraction, miRNA and mRNA quantification, assessment of the serum transaminase levels, and liver histology.
The miR-122 and let-7a microRNA levels were quantified with TaqMan microRNA Assay (Applied Biosystems) following the manufacturer's instructions. The RT reaction was diluted ten times in water and subsequently used for real time PCR amplification according to the manufacturer's instructions. A two-fold cDNA dilution series from liver total RNA of a saline-treated animal or mock transfected cells cDNA reaction (using 2.5 times more total RNA than in samples) served as standard to ensure a linear range (Ct versus relative copy number) of the amplification. Applied Biosystems 7500 or 7900 real-time PCR instrument was used for amplification.

[5] = test system: miR-122; experiment: Total plasma cholesterol in hypercholesterolemic and normal mice, long-term treatment; assay type: in vivo, mouse; settings: hypercholesterolemic and normal mice; 5 mg/kg i.p. twice weekly
Protocol: as §1
C57BL/6J female mice (Taconic M&B Laboratory Animals, Ejby, Denmark) were used. All substances were formulated in physiological saline (0.9% NaCl) to final concentration allowing the mice to receive an intraperitoneal injection volume of 10 ml/kg.
In the diet induced obesity study, the mice received a high fat (60EN %) diet (D12492, Research Diets) for 13 weeks to increase their blood cholesterol level before the dosing started. The dose regimen was stretched out to 5½ weeks of 5 mg/kg LNA-antimiR™ twice weekly. Blood plasma was collected once a week during the entire dosing period. After completion of the experiment the mice were sacrificed and RNA extracted from the livers for further analysis. Serum was also collected for analysis of liver enzymes.
Immediately before sacrifice retro-orbital sinus blood was collected in EDTA-coated tubes followed by isolation of the plasma fraction. Total plasma cholesterol was analysed using ABX Pentra Cholesterol CP (Horiba Group, Horiba ABX Diagnostics) according to the manufacturer's instructions.

| Substance | Tm (° C.) [1] | inhibition of miR-122a (in words) [2] | de-repression of direct miR-122 target genes (AldoA and Bckdk) after long-term treatment (in words) [3] | miR-122 levels in liver after long-term treatment (in words) [4] | effect on plasma cholesterol levels (in words) [5] |
| --- | --- | --- | --- | --- | --- |
| 5′-CcAttCTgaCcCtAC-3′ (antisense l[5mC]*dC*lA*dT*dT*l[5mC]*lT*dG*dA*l[5mC]*dC*l[5mC]*dT*lA*l[5mC]) [SEQ ID NO: 64, reference compound] | 32 °C | not found to inhibit miR-122a | – | – | – |
| mismatch control: the corresponding mismatch control to SEQ ID NO: 63 in Example 31; probably SEQ ID NO: 64 (antisense l[5mC]*dC*lA*dT*dT*l[5mC]*lT*dG*dA*l[5mC]*dC*l[5mC]*dT*lA*l[5mC]) [reference compound] | – | – | did not result in any functional de-repression | had an effect on miR-122 levels | did not affect the plasma cholesterol levels |

From patent US8440637B2, “Combination treatment for the treatment of hepatitis C virus infection” (priority 2007, dated 2013)
